Test results from patent publication US8410161B2, “Thioxanthone ring system derivatives” (National Defense Medical Center, priority 2010, dated 2013).

Assays:
HCT-116 = experiment: NCI in vitro DTP human cell line screen, HCT-116; type: cell-based; conditions: Colon Cancer, 1.00E−5 Molar
Protocol: (§1) Then, a cell toxicity assay of the cancer lines made by National Cancer Institute will be discussed as follows. The cell toxicity assay is performed by choosing ten compounds (existing certification numbers) from the 59 compounds disclosed in the present invention first.

BT-549 = experiment: NCI in vitro DTP human cell line screen, BT-549; type: cell-based; conditions: Breast Cancer, 1.00E−5 Molar
Protocol: as §1

IGROV1 = experiment: NCI in vitro DTP human cell line screen, IGROV1; type: cell-based; conditions: Ovarian Cancer, 1.00E−5 Molar
Protocol: as §1

COLO 205 = experiment: NCI in vitro DTP human cell line screen, COLO 205; type: cell-based; conditions: Colon Cancer, 1.00E−5 Molar
Protocol: as §1

OVCAR-5 = experiment: NCI in vitro DTP human cell line screen, OVCAR-5; type: cell-based; conditions: Ovarian Cancer, 1.00E−5 Molar
Protocol: as §1

OVCAR-3 = experiment: NCI in vitro DTP human cell line screen, OVCAR-3; type: cell-based; conditions: Ovarian Cancer, 1.00E−5 Molar
Protocol: as §1

SK-MEL-5 = experiment: NCI in vitro DTP human cell line screen, SK-MEL-5; type: cell-based; conditions: Melanoma, 1.00E−5 Molar
Protocol: as §1

MDA-MB-468 = experiment: NCI in vitro DTP human cell line screen, MDA-MB-468; type: cell-based; conditions: Breast Cancer, 1.00E−5 Molar
Protocol: as §1

HS 578-T = experiment: NCI in vitro DTP human cell line screen, HS 578-T; type: cell-based; conditions: Breast Cancer, 1.00E−5 Molar
Protocol: as §1

SF-268 = experiment: NCI in vitro DTP human cell line screen, SF-268; type: cell-based; conditions: CNS Cancer, 1.00E−5 Molar
Protocol: as §1

NCI/ADR-RES = experiment: NCI in vitro DTP human cell line screen, NCI/ADR-RES; type: cell-based; conditions: Ovarian Cancer, 1.00E−5 Molar
Protocol: as §1

T-47D = experiment: NCI in vitro DTP human cell line screen, T-47D; type: cell-based; conditions: Breast Cancer, 1.00E−5 Molar
Protocol: as §1

NCI-H23 = experiment: NCI in vitro DTP human cell line screen, NCI-H23; type: cell-based; conditions: Non-Small Cell Lung Cancer, 1.00E−5 Molar
Protocol: as §1

SK-MEL-28 = experiment: NCI in vitro DTP human cell line screen, SK-MEL-28; type: cell-based; conditions: Melanoma, 1.00E−5 Molar
Protocol: as §1

OVCAR-8 = experiment: NCI in vitro DTP human cell line screen, OVCAR-8; type: cell-based; conditions: Ovarian Cancer, 1.00E−5 Molar
Protocol: as §1

OVCAR-4 = experiment: NCI in vitro DTP human cell line screen, OVCAR-4; type: cell-based; conditions: Ovarian Cancer, 1.00E−5 Molar
Protocol: as §1

SNB-75 = experiment: NCI in vitro DTP human cell line screen, SNB-75; type: cell-based; conditions: CNS Cancer, 1.00E−5 Molar
Protocol: as §1

SR = experiment: NCI in vitro DTP human cell line screen, SR; type: cell-based; conditions: Leukemia, 1.00E−5 Molar
Protocol: as §1

HT29 = experiment: NCI in vitro DTP human cell line screen, HT29; type: cell-based; conditions: Colon Cancer, 1.00E−5 Molar
Protocol: as §1

MALME-3M = experiment: NCI in vitro DTP human cell line screen, MALME-3M; type: cell-based; conditions: Melanoma, 1.00E−5 Molar
Protocol: as §1

NCI-H322M = experiment: NCI in vitro DTP human cell line screen, NCI-H322M; type: cell-based; conditions: Non-Small Cell Lung Cancer, 1.00E−5 Molar
Protocol: as §1

DU145 = experiment: NCI in vitro DTP human cell line screen, DU145; type: cell-based; conditions: Prostate Cancer, 1.00E−5 Molar
Protocol: as §1

SF-539 = experiment: NCI in vitro DTP human cell line screen, SF-539; type: cell-based; conditions: CNS Cancer, 1.00E−5 Molar
Protocol: as §1

SF-295 = experiment: NCI in vitro DTP human cell line screen, SF-295; type: cell-based; conditions: CNS Cancer, 1.00E−5 Molar
Protocol: as §1

SK-MEL-2 = experiment: NCI in vitro DTP human cell line screen, SK-MEL-2; type: cell-based; conditions: Melanoma, 1.00E−5 Molar
Protocol: as §1

60 cancer lines = experiment: NCI cell toxicity assay of 60 cancer lines, whole panel summary; type: cell-based, human; conditions: mean over all cell lines; 1.00E−5 Molar
Protocol: as §1

TK-10 = experiment: NCI in vitro DTP human cell line screen, TK-10; type: cell-based; conditions: Renal Cancer, 1.00E−5 Molar
Protocol: as §1

NCI-H460 = experiment: NCI in vitro DTP human cell line screen, NCI-H460; type: cell-based; conditions: Non-Small Cell Lung Cancer, 1.00E−5 Molar
Protocol: as §1

M14 = experiment: NCI in vitro DTP human cell line screen, M14; type: cell-based; conditions: Melanoma, 1.00E−5 Molar
Protocol: as §1

MOLT-4 = experiment: NCI in vitro DTP human cell line screen, MOLT-4; type: cell-based; conditions: Leukemia, 1.00E−5 Molar
Protocol: as §1

KM12 = experiment: NCI in vitro DTP human cell line screen, KM12; type: cell-based; conditions: Colon Cancer, 1.00E−5 Molar
Protocol: as §1

MDA-MB-435 = experiment: NCI in vitro DTP human cell line screen, MDA-MB-435; type: cell-based; conditions: Melanoma, 1.00E−5 Molar
Protocol: as §1

UO-31 = experiment: NCI in vitro DTP human cell line screen, UO-31; type: cell-based; conditions: Renal Cancer, 1.00E−5 Molar
Protocol: as §1

A3 cell lines = experiment: MTT assay, A3 cell lines (lung cancer stem cell); type: cell-based
Description: Please to FIG. 4B, various cell viabilities of the A3 cell lines can be obtained through the MTT assay and illustrated in FIG. 4B while the compounds No. 1˜30 are used to treat A3 cell lines, wherein A3 cell lines are lung cancer stem cell.

RPMI-8226 = experiment: NCI in vitro DTP human cell line screen, RPMI-8226; type: cell-based; conditions: Leukemia, 1.00E−5 Molar
Protocol: as §1

PC-3 = experiment: NCI in vitro DTP human cell line screen, PC-3; type: cell-based; conditions: Prostate Cancer, 1.00E−5 Molar
Protocol: as §1

K562 = experiment: NCI in vitro DTP human cell line screen, K562; type: cell-based; conditions: Leukemia, 1.00E−5 Molar
Protocol: as §1

EKVX = experiment: NCI in vitro DTP human cell line screen, EKVX; type: cell-based; conditions: Non-Small Cell Lung Cancer, 1.00E−5 Molar
Protocol: as §1

HCT-15 = experiment: NCI in vitro DTP human cell line screen, HCT-15; type: cell-based; conditions: Colon Cancer, 1.00E−5 Molar
Protocol: as §1

NCI-H226 = experiment: NCI in vitro DTP human cell line screen, NCI-H226; type: cell-based; conditions: Non-Small Cell Lung Cancer, 1.00E−5 Molar
Protocol: as §1

CAKI-1 = experiment: NCI in vitro DTP human cell line screen, CAKI-1; type: cell-based; conditions: Renal Cancer, 1.00E−5 Molar
Protocol: as §1

HCC-2998 = experiment: NCI in vitro DTP human cell line screen, HCC-2998; type: cell-based; conditions: Colon Cancer, 1.00E−5 Molar
Protocol: as §1

LOX IMVI = experiment: NCI in vitro DTP human cell line screen, LOX IMVI; type: cell-based; conditions: Melanoma, 1.00E−5 Molar
Protocol: as §1

[1] = MTT assay, HEL299 fibroblast; type: cell-based; conditions: human
Description: Please refer to FIG. 4C, various cell viabilities of the HEL299 cell lines can be obtained through the MTT assay while the compounds No. 1˜30 are used to treat HEL299 cell lines, wherein HEL299 cell lines are fibroblast.

NCI-H522 = experiment: NCI in vitro DTP human cell line screen, NCI-H522; type: cell-based; conditions: Non-Small Cell Lung Cancer, 1.00E−5 Molar
Protocol: as §1

U251 = experiment: NCI in vitro DTP human cell line screen, U251; type: cell-based; conditions: CNS Cancer, 1.00E−5 Molar
Protocol: as §1

UACC-257 = experiment: NCI in vitro DTP human cell line screen, UACC-257; type: cell-based; conditions: Melanoma, 1.00E−5 Molar
Protocol: as §1

HL-60(TB) = experiment: NCI in vitro DTP human cell line screen, HL-60(TB); type: cell-based; conditions: Leukemia, 1.00E−5 Molar
Protocol: as §1

786-0 = experiment: NCI in vitro DTP human cell line screen, 786-0; type: cell-based; conditions: Renal Cancer, 1.00E−5 Molar
Protocol: as §1

A control cell lines = experiment: MTT assay, A control cell lines (lung cancer cell); type: cell-based
Description: Please refer to Table 1 and FIGS. 4A-4C. According to a MTT assay (Table 1), various cell viabilities of the A control cell lines can be obtained and illustrated in FIG. 4A while the compounds No. 2˜30 are used to treat A control cell lines, wherein A control cell lines are lung cancer cell.

SW-620 = experiment: NCI in vitro DTP human cell line screen, SW-620; type: cell-based; conditions: Colon Cancer, 1.00E−5 Molar
Protocol: as §1

MCF7 = experiment: NCI in vitro DTP human cell line screen, MCF7; type: cell-based; conditions: Breast Cancer, 1.00E−5 Molar
Protocol: as §1

SK-OV-3 = experiment: NCI in vitro DTP human cell line screen, SK-OV-3; type: cell-based; conditions: Ovarian Cancer, 1.00E−5 Molar
Protocol: as §1

ACHN = experiment: NCI in vitro DTP human cell line screen, ACHN; type: cell-based; conditions: Renal Cancer, 1.00E−5 Molar
Protocol: as §1

RXF 393 = experiment: NCI in vitro DTP human cell line screen, RXF 393; type: cell-based; conditions: Renal Cancer, 1.00E−5 Molar
Protocol: as §1

## COc1cccc(Sc2ccc3c(=O)c4ccccc4sc3c2Cl)c1 [No. 16, 4-Chloro-3-(3-methoxylphenylthio)-9H-thioxanthen-9-one]
HCT-116
  Growth Percent: 101.88%
BT-549
  Growth Percent: 112.48%
IGROV1
  Growth Percent: 108.37%
COLO 205
  Growth Percent: 113.53%
OVCAR-5
  Growth Percent: 94.14%
OVCAR-3
  Growth Percent: 113.99%
SK-MEL-5
  Growth Percent: 96.73%
MDA-MB-468
  Growth Percent: 104.49%
HS 578-T
  Growth Percent: 103.73%
SF-268
  Growth Percent: 104.10%
NCI/ADR-RES
  Growth Percent: 102.83%
T-47D
  Growth Percent: 92.09%
NCI-H23
  Growth Percent: 92.69%
SK-MEL-28
  Growth Percent: 109.16%
OVCAR-8
  Growth Percent: 94.29%
OVCAR-4
  Growth Percent: 99.88%
SNB-75
  Growth Percent: 86.86%
SR
  Growth Percent: 99.21%
HT29
  Growth Percent: 91.02%
MALME-3M
  Growth Percent: 94.91%
NCI-H322M
  Growth Percent: 118.28%
DU145
  Growth Percent: 115.18%
SF-539
  Growth Percent: 100.06%
SF-295
  Growth Percent: 108.18%
SK-MEL-2
  Growth Percent: 97.07%
60 cancer lines
  Growth Percent, Mean: 101.65%
TK-10
  Growth Percent: 95.23%
NCI-H460
  Growth Percent: 108.81%
M14
  Growth Percent: 111.90%
MOLT-4
  Growth Percent: 111.47%
KM12
  Growth Percent: 114.13%
MDA-MB-435
  Growth Percent: 100.32%
UO-31
  Growth Percent: 98.31%
A3 cell lines
  cell viabilities of A3 cell lines (MTT assay): 90.0 ± 1.24%
RPMI-8226
  Growth Percent: 99.57%
PC-3
  Growth Percent: 98.58%
K562
  Growth Percent: 97.79%
EKVX
  Growth Percent: 96.56%
HCT-15
  Growth Percent: 94.87%
NCI-H226
  Growth Percent: 95.11%
CAKI-1
  Growth Percent: 101.23%
HCC-2998
  Growth Percent: 103.45%
LOX IMVI
  Growth Percent: 93.53%
[1]
  viability: 90.6 ± 11.5%
NCI-H522
  Growth Percent: 86.09%
U251
  Growth Percent: 93.76%
UACC-257
  Growth Percent: 89.21%
HL-60(TB)
  Growth Percent: 115.43%
786-0
  Growth Percent: 107.97%
A control cell lines
  cell viabilities of A control cell lines (MTT assay): 91.8 ± 3.07%
SW-620
  Growth Percent: 106.14%
MCF7
  Growth Percent: 88.94%
SK-OV-3
  Growth Percent: 104.91%
ACHN
  Growth Percent: 103.08%
RXF 393
  Growth Percent: 112.67%
